Results as given in patent US20150140002A1, “USE OF A PCSK9 INHIBITOR TO TREAT […]” (Sanofi, priority 2013, published 2015).
Marks after values point to notes of the source that are not given here.

Key:
[1] = test system: patients with primary hypercholesterolemia (heFH and non-FH) who are intolerant to statins; details: human, in vivo
[2] = test system: patients with hypercholesterolemia at moderate cardiovascular (CV) risk; details: human, in vivo
Text: The clinical laboratory data consisted of urinalysis and blood analysis, hematology (RBC count, red blood cell distribution width (RDW), reticulocyte count, hemoglobin, hematocrit, platelets, WBC count with differential blood count), standard chemistry (glucose, sodium, potassium, chloride, bicarbonate, calcium, phosphorous, urea nitrogen, creatinine, uric acid, total protein, LDH, albumin, γ Glutamyl Transferase [γGT]), Hepatitis C antibody, liver panel (ALT, AST, ALP, and total bilirubin), and CPK.
Safety endpoints—Vital signs measurement: Vital signs included: HR, systolic and diastolic BP in sitting position.
The safety analysis included all randomized and treated patients. Safety data were analyzed by descriptive statistics.

[3] = test system: patients with primary hypercholesterolemia (heFH and non-FH) who are intolerant to statins; test: Example 3: randomized double-blind trial mAb316P versus ezetimibe (atorvastatin calibrator arm), lipid parameters; assay type: in vivo, human
Text: The present study was a randomized, double-blind, double-dummy, active-controlled, parallel-group, multi-national, multi-center study in patients with primary hypercholesterolemia and moderate, high, or very high CV risk who are intolerant to statins. The study design is illustrated in FIG. 7.
Primary Efficacy Endpoint: The primary efficacy endpoint was the percent change in calculated LDL-C from baseline to week 24, which was defined as: 100× (calculated LDL-C value at week 24—calculated LDL-C value at baseline)/calculated LDL-C value at baseline. A baseline LDL-C value was needed for each patient as the baseline calculated LDL-C value was the last LDL-C level obtained before the first double-blind study drug injection.
Total-C, HDL-C, TG, ApoB, ApoA-1, and Lp(a) were directly measured by a central laboratory as per a predetermined schedule. Low-density lipoprotein cholesterol was calculated using the Friedewald formula at all visits (except week −15 and the follow-up visit). If TG values exceeded 400 mg/dL (4.52 mmol/L), then the central lab measured (via the beta quantification method) the LDL-C rather than calculate it. Non-HDL-C was calculated by subtracting HDL-C from the total-C. Ratio ApoB/ApoA-1 was calculated.
The double-blind period efficacy endpoint analysis results in the order of statistical hierarchical testing as specified in the above protocol (with multiple testing controlled at the 0.05 significance level) is set forth in Table 12. Primary and key secondary efficacy analyses were performed comparing mAb316P-treated patients to ezetimibe-treated patients. For clarification, the ITT analysis is defined for patients in the ITT population and includes all endpoint assessments in an analysis window, regardless of study treatment dosing status (i.e. includes post-treatment assessments). The on-treatment analysis is defined for patients in the mITT population and includes all endpoint assessments from the first double-blind study drug (capsule or injection, whichever comes first) up to 21 days after the last double-blind study drug injection, or 3 days after the last capsule intake, whichever came first (i.e. includes assessments in the efficacy treatment period). Note: A result is statistically significant if the p-value is s 0.05, in the order of the hierarchical testing.

anti-mAb316P antibodies = test: Example 2: anti-mAb316P antibody (ADA) bridging immunoassay and neutralizing antibody assay; assay type: in vivo, human; details: in vivo
Protocol: Other endpoints Anti-MAb316P Antibody Assessments: Anti-mAb316P antibodies included the antibody status (positive/negative) and antibody titers.
Sampling time: Serum samples for anti-mAb316P antibody determination were drawn periodically throughout the study. The first scheduled sample at randomization visit was obtained before IMP injection (predose).
Anti-mAb316P antibody samples were analyzed using a validated non-quantitative, titer-based bridging immunoassay. It involved an initial screen, a confirmation assay based on drug specificity, and a measurement of the titer of anti-MAb316P antibodies in the sample. The lower limit of detection was approximately 1.5 ng/mL.
Samples that were positive in the ADA assay were assessed for neutralizing antibodies using a validated, non-quantitative, competitive ligand binding assay. The lower limit of detection based on a monoclonal positive control neutralizing antibody is 390 ng/mL.

[4] = WK24, ITT analysis, listed as EZE
[5] = WK24, ITT analysis, listed as Ezetimibe

O=C1[C@H](CC[C@H](O)c2ccc(F)cc2)[C@@H](c2ccc(O)cc2)N1c1ccc(F)cc1 [ezetimibe, reference compound]
Cardiac disorders (SOC) [1]: 6 (4.8%) patients (%) | Ear and labyrinth disorders (SOC) [1]: 4 (3.2%) patients (%) | General allergic TEAEs (MedDRA SMQ Hypersensitivity) [1]: 9 (7.3%) patients (%) | Investigations (SOC) [1]: 7 (5.6%) patients (%) | Psychiatric disorders (SOC) [1]: 5 (4.0%) patients (%) | Skeletal muscle-related TEAEs (CMQ preferred term) [1]: 40 (32.3%) patients (%) | TEAEs [1]: 100 (80.6%) patients (%) | Treatment-emergent SAEs [1]: 10 (8.1%) patients (%) | Treatment-emergent injection site reactions (ISRs) [1]: 6 (4.8%) patients (%) | Treatment-emergent neurocognitive disorders [1]: 2 (1.6%) patients (%) | Treatment-emergent neurologic AEs [1]: 4 (3.2%) patients (%) | Treatment-emergent skeletal muscle-related events resulting in early treatment discontinuation [1]: 23 (18.5%) patients (%) | back pain [1]: 5.6% | early termination due to musculoskeletal and connective tissues disorders SOC events [1]: 26 [21.0%] patients [%] | fatigue [1]: 3.2% | headache [1]: 4.8% | insomnia [1]: 2 (1.6%) reports (%) | muscle spasms [1]: 7.3% | muscular weakness [1]: 1.6% | non-cardiac chest pain (treatment-emergent SAE preferred term) [1]: 4 (3.2%) patients (%) | palpitations [1]: 2 (1.6%) reports (%) | paraesthesia [1]: 0% | patients who prematurely discontinued study treatment due to a TEAE [1]: 31 (25.0%) patients (%) | patients who prematurely terminated study treatment due to adverse events [1]: 31 (24.8%) patients (%) | rate of AEs [1]: 81% | vertigo [1]: 2 (1.6%) reports (%) | Influenza [2]: 3 (5.9) n (%) | Apo A-1 LS mean percent change from baseline ([3]; WK12, ITT analysis): LS mean: 3.9% | Apo B LS mean percent change from baseline ([3]; WK12, ITT analysis): LS mean: −11.6% | Fasting Triglycerides LS mean percent change from baseline ([3]; WK12, ITT analysis): LS mean: −9.4% | HDL-C LS mean percent change from baseline ([3]; WK12, ITT analysis): LS mean: 7.6% | LDL-C LS mean percent change from baseline ([3]; WK12, ITT analysis): LS mean: −15.6% | Lp(a) LS mean percent change from baseline ([3]; WK12, ITT analysis): LS mean: −4.5% | Non-HDL-C LS mean percent change from baseline ([3]; WK12, ITT analysis): LS mean: −15.8% | Total Cholesterol LS mean percent change from baseline ([3]; WK12, ITT analysis): LS mean: −11.6% | LDL-C LS mean percent change from baseline ([3]; WK12, on-treatment analysis): LS mean: −18.0% | Apo A-1 LS mean percent change from baseline ([3]; WK24, ITT analysis): LS mean: 2.9% | Fasting Triglycerides LS mean percent change from baseline ([3]; WK24, ITT analysis): LS mean: −3.5% | HDL-C LS mean percent change from baseline ([3]; WK24, ITT analysis): LS mean: 6.8% | LDL-C LS mean percent change from baseline ([3]; WK24, ITT analysis): −14.6% | Proportion with LDL-C <70 mg/dL ([3]; WK24, ITT analysis): Proportion = 0.8% | Proportion with Very High CV LDL-C <70 mg/dL OR Moderate/High CV LDL-C <100 mg/dL ([3]; WK24, ITT analysis): Proportion = 4.1% | Total Cholesterol LS mean percent change from baseline ([3]; WK24, ITT analysis): LS mean: −10.9% | Apo B LS mean percent change from baseline [3, 4]: −11.2* % | LDL-C LS mean percent change from baseline [3, 4]: -14.6% | Lp(a) LS mean percent change from baseline [3, 4]: −7.3* % | Non-HDL-C LS mean percent change from baseline [3, 4]: −14.6* % | Apo B LS mean percent change from baseline [3, 5]: LS mean: −11.2% | LDL-C LS mean percent change from baseline [3, 5]: LS mean: −14.6% | Lp(a) LS mean percent change from baseline [3, 5]: LS mean: −7.3% | Non-HDL-C LS mean percent change from baseline [3, 5]: LS mean: −14.6% | Apo B LS mean percent change from baseline ([3]; WK24, on-treatment analysis): LS mean: −14.4% | LDL-C LS mean percent change from baseline ([3]; WK24, on-treatment analysis): LS mean: −17.1% | Non-HDL-C LS mean percent change from baseline ([3]; WK24, on-treatment analysis): LS mean: −17.1% | Proportion with LDL-C <70 mg/dL ([3]; WK24, on-treatment analysis): Proportion = 0.8% | Proportion with Very High CV LDL-C <70 mg/dL OR Moderate/High CV LDL-C <100 mg/dL ([3]; WK24, on-treatment analysis): Proportion = 4.2% | patients who reached LDL-C goal at week 24 ([3]; goal <70 mg/dL very high risk, <100 mg/dL moderate and high risk): 4.4% | LS mean LDL-C value at week 24 ([3]; in vivo): 159.9 mg/dL | change in LDL-C level from baseline ([3]; week 24): -33 mg/dL | patients with treatment emergent anti-drug antibodies (anti-mAb316P antibodies): not observed
